Usually pIC50 stands for the IC50 on a negative log10 scale, so that one unit is a factor of ten.

The record followed here is patent US20260217677A1, “ORGANIC COMPOUNDS AS NLRP3 INHIBITORS” (KODIAK SCIENCES, INC., priority 2023, published 2026).

pIC50: −log10 of the molar value.

The first experiment concerns IL-1β release in U937 cells after NLRP3 activation. The experiment can be described thus: IL-1β release inhibition in U937 cells (MSD V-Plex). Particulars: Homo sapiens, U-937, read-out: IL-1β IC50, Table 3; PMA-differentiated U937 cells, 1 μg/mL LPS 3 h, compound 30 min, 10 mM nigericin 1 h.
Experimental: Differentiating media was prepared by adding 20 nM phorbol 12-myristate 13-acetate (PMA) (AdipoGen AG-CN2-0010-M005) to growth medium. A cell suspension was prepared with differentiating media at 500K cells/mL. […] Plates were placed in an incubator for 90 hours. […] Differentiating media was removed and priming media was added to each well. The plates were placed in the incubator for three (3) hours. 20 mM compound DMSO stock solutions were prepared and were further diluted to 0.4 mM; This solution was serially diluted 6 times in a 1:5 ratio. A solvent control was included.
After three (3) hours of priming, all the media was removed. Next, assay media with compounds was added in duplicate columns. The plate was placed in an incubator for 30 min. Media with a final concentration of 10 mM nigericin was then added for one (1) hour. The supernatant was collected and frozen immediately at −80° C. The plate was transferred to −20° C. the next day and for later determination of cytokine IL-1ß levels.
The release of IL-1ß into the cell media was determined with the MSD® Multi-Spot Assay System (V-Plex, IL-1ß kit, K151KPD). Following the manufacturer's protocol (Alternate Protocol 3, Dilute-In-Plate), the level of IL-1ß in the above collected supernatant plate was measured using electro-chemiluminescent signals. Using MSD DISCOVERY WORKBENCH® analysis software, the signals were converted to the concentration of IL-1ß in each well. The IC50 values of the compounds were calculated using fitted non-linear regression curve in Graph Pad Prism software. The detection range of IL-1ß using MSD kit was approximately 0.15 to 600 μg/mL (based on various lots of standards purchased from MSD).
On to `Cc1c(N[C@@H]2CCCN(C[C@H]3C[C@@H](O)C3)C2)nnc(-c2ccc3sccc3c2O)c1C` [Example 73, 5-(6-(((R)-1-(((1s,3S)-3-Hydroxycyclobutyl)methyl)piperidin-3-yl)amino)-4,5-dimethylpyridazin-3-yl)benzo[b]thiophen-4-ol], for which the pIC50 is more than 8.30.
Still for that read-out and setting: the figure for `Cc1cc(N[C@@H]2CCCN(CC(=O)N3CC4(CCC(O)CC4)C3)C2)nnc1-c1ccc(C(F)(F)F)cc1O` [Compound 17, (R)-2-(3-((6-(2-Hydroxy-4-(trifluoromethyl)phenyl)-5-methylpyridazin-3-yl)amino)piperidin-1-yl)-1-(7-hydroxy-2-azaspiro[3.5]nonan-2-yl)ethan-1-one] is more than 8.30; for `O=C(CN1CCC[C@@H](Nc2nnc(-c3ccc(C(F)(F)F)cc3O)c3c2CNC3)C1)N1CCC(O)CC1` [Example 57, (R)-2-(3-((4-(2-Hydroxy-4-(trifluoromethyl)phenyl)-6,7-dihydro-5H-pyrrolo[3,4-d]pyridazin-1-yl)amino)piperidin-1-yl)-1-(4-hydroxypiperidin-1-yl)ethan-1-one] it is 6.30 to 7.30.
For the molecule `Cc1c(N[C@@H]2CCCN(CC(=O)N3CCC(O)CC3)C2)nnc(-c2ccc(C(F)(F)F)cc2O)c1C` [Example 30, (R)-2-(3-((6-(2-Hydroxy-4-(trifluoromethyl)phenyl)-4,5-dimethylpyridazin-3-yl)amino)piperidin-1-yl)-1-(4-hydroxypiperidin-1-yl)ethan-1-one], the pIC50 is 7.30 to 8.30.
For the molecule `Cc1c(N[C@@H]2CCCN(CC3CC(O)C3)C2)nnc(-c2ccc3sccc3c2O)c1C` (stereo partly drawn) [Example 74, 5-(6-(((R)-1-(((1r,3R)-3-Hydroxycyclobutyl)methyl)piperidin-3-yl)amino)-4,5-dimethylpyridazin-3-yl)benzo[b]thiophen-4-ol], the pIC50 is more than 8.30.
In the case of `Cc1cc(N[C@@H]2CCCN(CC(=O)N3CC[C@@H](O)C3)C2)nnc1-c1ccc(C(F)(F)F)cc1O` [Compound 12, 2-((R)-3-((6-(2-Hydroxy-4-(trifluoromethyl)phenyl)-5-methylpyridazin-3-yl)amino)piperidin-1-yl)-1-((R)-3-hydroxypyrrolidin-1-yl)ethan-1-one], the pIC50 is more than 8.30.
Same read-out and setting: the figure for `Cc1cc(N[C@@H]2CCCN(CCC3CCC(O)CC3)C2)nnc1-c1ccc(C(F)(F)F)cc1O` (single isomer, unassigned) [Example 72] is more than 8.30.
In the case of `O=C(CN1CCC[C@@H](Nc2nnc(-c3ccc(C(F)(F)F)cc3O)c3c2COC3)C1)N1CC[C@H](O)C1` [Compound 26, 2-((R)-3-((4-(2-Hydroxy-4-(trifluoromethyl)phenyl)-5,7-dihydrofuro[3,4-d]pyridazin-1-yl)amino)piperidin-1-yl)-1-((S)-3-hydroxypyrrolidin-1-yl)ethan-1-one], the pIC50 was 7.30 to 8.30.
As to `Cc1cc(N[C@@H]2CCCN(C3CCN(C(=O)N4CC(O)C4)CC3)C2)nnc1-c1ccc(C(F)(F)F)cc1O` [Example 40, (R)-(3-((6-(2-Hydroxy-4-(trifluoromethyl)phenyl)-5-methylpyridazin-3-yl)amino)-[1,4′-bipiperidin]-1′-yl) (3-hydroxyazetidin-1-yl)methanone], the pIC50 is more than 8.30.
Still for that read-out and setting: the figure for `Cc1cc(N[C@@H]2CCCN(CC(=O)N[C@H]3C[C@@H](O)C3)C2)nnc1-c1ccc(C(F)(F)F)cc1O` [Compound 14, 2-((R)-3-((6-(2-Hydroxy-4-(trifluoromethyl)phenyl)-5-methylpyridazin-3-yl)amino)piperidin-1-yl)-N-((1s,3S)-3-hydroxycyclobutyl)acetamide] is 7.30 to 8.30; for `Cc1cc(N[C@@H]2CCCN(CCC(=O)N3CCC(O)CC3)C2)nnc1-c1ccc(C(F)(F)F)cc1O` [Example 46, 3-[(3R)-3-({6-[2-Hydroxy-4-(trifluoromethyl)phenyl]-5-methylpyridazin-3-yl}amino)piperidin-1-yl]-1-(4-hydroxypiperidin-1-yl) propan-1-one] it is more than 8.30; for `O=C(CN1CCC[C@@H](Nc2nnc(-c3ccc(C(F)(F)F)cc3O)c3c2COC3)C1)N1CCC2(CC1)CC(O)C2` [Compound 24, (R)-2-(3-((4-(2-Hydroxy-4-(trifluoromethyl)phenyl)-5,7-dihydrofuro[3,4-d]pyridazin-1-yl)amino)piperidin-1-yl)-1-(2-hydroxy-7-azaspiro[3.5]nonan-7-yl)ethan-1-one] it is 7.30 to 8.30.
For `Cc1cc(N[C@@H]2CCCN(CC(=O)N3CCC4(CC3)CC(O)C4)C2)nnc1-c1ccc(C(F)(F)F)cc1O` [Compound 15, 2-[(3R)-3-({6-[2-Hydroxy-4-(trifluoromethyl)phenyl]-5-methylpyridazin-3-yl}amino)piperidin-1-yl]-1-{2-hydroxy-7-azaspiro[3.5]nonan-7-yl}ethanone], the pIC50 is more than 8.30.
Turning to `Cc1cc(N[C@@H]2CCCN(C3CCN(C4CC(O)C4)CC3)C2)nnc1-c1ccc(C(F)(F)F)cc1O` (single isomer, unassigned) [Example 38A], the pIC50 is 7.30 to 8.30.
On the same count and under the same terms, the result for `O=C(CN1CCC[C@@H](Nc2nnc(-c3ccc(C(F)(F)F)cc3O)c3c2COC3)C1)N1C[C@@H](O)[C@H](F)C1` [Example 29, 1-((3R,4R)-3-Fluoro-4-hydroxypyrrolidin-1-yl)-2-((R)-3-((4-(2-hydroxy-4-(trifluoromethyl)phenyl)-5,7-dihydrofuro[3,4-d]pyridazin-1-yl)amino)piperidin-1-yl)ethan-1-one] reads 7.30 to 8.30; that for `Cc1cc(N[C@@H]2CCCN(CC(=O)NC34CC(O)(C3)C4)C2)nnc1-c1ccc(C(F)(F)F)cc1O` [Compound 13, (R)-2-(3-((6-(2-Hydroxy-4-(trifluoromethyl)phenyl)-5-methylpyridazin-3-yl)amino)piperidin-1-yl)-N-(3-hydroxybicyclo[1.1.1]pentan-1-yl)acetamide], 7.30 to 8.30.
The same measure, in the same setting: the result for `Cc1cc(N[C@@H]2CCCN(CC(=O)NC3CC(O)C3)C2)nnc1-c1ccc(C(F)(F)F)cc1O` (stereo partly drawn) [Compound 10, 2-((R)-3-((6-(2-Hydroxy-4-(trifluoromethyl)phenyl)-5-methylpyridazin-3-yl)amino)piperidin-1-yl)-N-((1r,3R)-3-hydroxycyclobutyl)acetamide] reads 7.30 to 8.30; that for `Cc1c(-c2ccc(C(F)(F)F)cc2O)nnc2c1CCCN2[C@@H]1CCCN(CC(=O)N2CCC3(CC2)CC(O)C3)C1` [Example 43, 2-[(3R)-3-{3-[2-Hydroxy-4-(trifluoromethyl)phenyl]-4-methyl-5H,6H,7H-pyrido[2,3-c]pyridazin-8-yl}piperidin-1-yl]-1-{2-hydroxy-7-azaspiro[3.5]nonan-7-yl}ethanone], 6.30 to 7.30; that for `Cc1cc(N[C@@H]2CCCN(C(=O)C34CC(O)(C3)C4)C2)nnc1-c1ccc(C(F)(F)F)cc1O` [Example 63, (R)-(3-((6-(2-Hydroxy-4-(trifluoromethyl)phenyl)-5-methylpyridazin-3-yl)amino)piperidin-1-yl) (3-hydroxybicyclo[1.1.1]pentan-1-yl)methanone], 7.30 to 8.30.
Take `Cc1cc(N[C@@H]2CCCN(CCN3CCC(O)C3)C2)nnc1-c1ccc(C(F)(F)F)cc1O` (stereo partly drawn) [Compound 2, 1-(2-((R)-3-((6-(2-Hydroxy-4-(trifluoromethyl)phenyl)-5-methylpyridazin-3-yl)amino)piperidin-1-yl)ethyl)pyrrolidin-3-ol]: the pIC50 was less than 6.30.

Still in this experiment, the particulars now being: Homo sapiens, U-937, read-out: IL-1β IC50, Table 4; PMA-differentiated U937 cells, 1 μg/mL LPS 3 h, compound 30 min, 10 mM nigericin 1 h.
With `NC1CC2(CCN(C(=O)CN3CCC[C@@H](Nc4nnc(-c5ccc(C(F)(F)F)cc5O)c5c4COC5)C3)CC2)C1` [Example 101, (R)-1-(2-Amino-7-azaspiro[3.5]nonan-7-yl)-2-(3-((4-(2-hydroxy-4-(trifluoromethyl)phenyl)-5,7-dihydrofuro[3,4-d]pyridazin-1-yl)amino)piperidin-1-yl)ethan-1-one], the pIC50 is 7.30 to 8.30.
The same measure, in the same setting: the result for `Cc1cc(N[C@@H]2CCCN(CCNCC3CCS(=O)(=O)CC3)C2)nnc1-c1ccc(C(F)(F)F)cc1O` [Example 109, (R)-4-(((2-(3-((6-(2-Hydroxy-4-(trifluoromethyl)phenyl)-5-methylpyridazin-3-yl)amino)piperidin-1-yl)ethyl)amino)methyl)tetrahydro-2H-thiopyran 1,1-dioxide] reads 7.30 to 8.30; that for `Cc1cc(N[C@@H]2CCCN(C3CCN(C(=O)N4CCC(N)CC4)CC3)C2)nnc1-c1ccc(C(F)(F)F)cc1O` [Example 87, (R)-(4-Aminopiperidin-1-yl) (3-((6-(2-hydroxy-4-(trifluoromethyl)phenyl)-5-methylpyridazin-3-yl)amino)-[1,4′-bipiperidin]-1′-yl)methanone], 6.30 to 7.30.
For the molecule `Cc1cc(N[C@@H]2CCCN(CC(=O)N3CCC(N)CC3)C2)nnc1-c1ccc(C(F)(F)F)cc1O` [Example 83, (R)-1-(4-Aminopiperidin-1-yl)-2-(3-((6-(2-hydroxy-4-(trifluoromethyl)phenyl)-5-methylpyridazin-3-yl)amino)piperidin-1-yl)ethan-1-one], the pIC50 is 6.30 to 7.30.
Turning to `Cc1cc(N[C@@H]2CCCN(CC(=O)NC3CNC3)C2)nnc1-c1ccc(C(F)(F)F)cc1O` [Example 94, (R)—N-(Azetidin-3-yl)-2-(3-((6-(2-hydroxy-4-(trifluoromethyl)phenyl)-5-methylpyridazin-3-yl)amino)piperidin-1-yl)acetamide], the negative logarithm of the IC50 (pIC50) was less than 6.30.
For the molecule `Cc1cc(N[C@@H]2CCCN(CC(=O)N3CCC4(CC3)CC(N)C4)C2)nnc1-c1ccc(C(F)(F)F)cc1O` [Example 82], the pIC50 is 7.30 to 8.30.
Same read-out and setting: the result for `Cc1cc(N[C@@H]2CCCN(C3CC(N)C3)C2)nnc1-c1ccc(C(F)(F)F)cc1O` (stereo partly drawn) [Example 89, (R)-2-(6-((1-(3-Aminocyclobutyl)piperidin-3-yl)amino)-4-methylpyridazin-3-yl)-5-(trifluoromethyl)phenol] reads 7.30 to 8.30; that for `Cc1cc(N[C@@H]2CCCN(C3CCN(CCN)CC3)C2)nnc1-c1ccc(C(F)(F)F)cc1O` [Example 98, (R)-2-(6-((1′-(2-Aminoethyl)-[1,4′-bipiperidin]-3-yl)amino)-4-methylpyridazin-3-yl)-5-(trifluoromethyl)phenol], 6.30 to 7.30.
